Measured values reported in patent publication US9585877B2, “Methods of maintaining, treating or improving cognitive function” (Forum Pharmaceuticals, Inc., priority 2012, dated 2017).

Assays:
Type in all cases: in vivo, human
[1] = tested on: subjects with mild-to-moderate Alzheimer's disease; assay: Clinical study, Cognition composite score
Procedure: (§1) A double-blind study of 3 doses of the Test Composition or placebo in subjects with mild-to-moderate Alzheimer's disease, with or without receiving a concomitant AChEI for 24 weeks (168 days) after a 7 day placebo run-in period.
(§2) Subjects with mild to moderate Alzheimer's disease receiving stable treatment with an AChEI (donepezil or rivastigmine: ‘add-on’ subjects) or not receiving an AChEI (de novo subjects′) received 0.3, 1, or 2 mg doses of Test Composition or placebo for up to 24 weeks (168 days) of double-blind treatment, after a 7-day single-blind, placebo run-in period to assess study drug compliance. A follow-up telephone contact was conducted approximately 15 days after the last dose of study drug for questions regarding safety.
(§3) These analyses were prespecified in the analytical plan (ITT population), and included the following: Cognition composite score (ADAS-cog Word Recall, Word Recognition, & Orientation, and COWAT and CFT), Memory composite score (ADAS-cog Word Recall, Word Recognition, and Orientation), and Executive Function composite score (COWAT and CFT).
(§4) Composite Scores—Three composite scores were calculated: (1) Composite Cognition Score (ADAS-cog Word Recall, Word Recognition, and Orientation, COWAT and CFT); (2) Memory Composite Score (ADAS-cog Word Recall, Word Recognition, and Orientation); and (3) Executive Function Composite Score (COWAT and CFT).
(§5) The composite score is only computed when all test scores are available.

[2] = tested on: subjects with mild-to-moderate Alzheimer's disease; assay: Clinical study, ADAS-Cog-13
Procedure: as §1
Total number of subjects in the safety population was 409 subjects that were dosed once-daily with a dosing-capsule for a period of 168 days. The subjects dosed, and the particular dosing, included: 104 subjects dosed with Placebo capsule; and 305 subjects dosed with Test Compound (104 subjects with 0.3 mg capsules; 101 subjects with 1 mg capsules; and 100 subjects with 2 mg capsules).
The population included generally healthy male or female subjects, aged 50 to ≦85 years, with mild-to-moderate Alzheimer's disease, consistent with criteria defined by a Work Group of the National Institute of Neurological and Communicative Disorders and Stroke—Alzheimer's Disease and Related Disorders Association, of mild to moderate severity, with a Mini-Mental State Examination score (MMSE) 14 and ≦24, and a Clinical Dementia Rating Scale Sum of the Boxes (CDR-SB) score of 2. […] Subjects were required to be either receiving a stable dose of an AChEI (donepezil or rivastigmine) for at least 3 months before screening or not presently being treated with an AChEI or mementine for at least 30 days.
as §2
Cognitive Part of the Alzheimer's Disease Assessment Scale (ADAS-Cog-13)
The ADAS-Cog-13 is identical to the ADAS-Cog-11 assessment group (see above), with the addition of test items: Delayed Word Recall, and Digit (Number) Cancellation.
The ADAS-cog-13 total score ranges from 0 to 85 (higher scores indicate more severe impairment). A decrease from baseline indicates improvement.

[3] = tested on: subjects with mild-to-moderate Alzheimer's disease; assay: Clinical study, Executive Function composite score; conditions: for Executive function composite score Effect Size: over a 23 week period
Procedure: as §1, §2, §3, §4, §5

Cl.O.O=C(N[C@H]1CN2CCC1CC2)c1cc2cccc(Cl)c2s1 [Test Compound, (R)-7-chloro-N-(quinuclidin-3-yl)benzo[b]thiophene-2-carboxamide, hydrochloride, monohydrate]
Cognition Composite Score (Baseline was assigned the value of zero @ Week 0) ([1]; 0.3 mg daily dose, Week 4): 0.0036 | Cognition Composite Score (Baseline was assigned the value of zero @ Week 0) ([1]; 0.3 mg daily dose, Week 12): 0.0171 | Cognition Composite Score (Baseline was assigned the value of zero @ Week 0) ([1]; 0.3 mg daily dose, Week 18): −0.0245 | Cognition Composite Score (Baseline was assigned the value of zero @ Week 0) ([1]; 0.3 mg daily dose, Week 23): −0.0451 | Cognition Composite Score (Baseline was assigned the value of zero @ Week 0) ([1]; 1 mg daily dose, Week 4): 0.0042 | Cognition Composite Score (Baseline was assigned the value of zero @ Week 0) ([1]; 1 mg daily dose, Week 12): 0.0804 | Cognition Composite Score (Baseline was assigned the value of zero @ Week 0) ([1]; 1 mg daily dose, Week 18): −0.0102 | Cognition Composite Score (Baseline was assigned the value of zero @ Week 0) ([1]; 1 mg daily dose, Week 23): 0.0287 | Cognition Composite Score (Baseline was assigned the value of zero @ Week 0) ([1]; 2 mg daily dose, Week 4): −0.0084 | Cognition Composite Score (Baseline was assigned the value of zero @ Week 0) ([1]; 2 mg daily dose, Week 12): 0.0513 | Cognition Composite Score (Baseline was assigned the value of zero @ Week 0) ([1]; 2 mg daily dose, Week 18): 0.0915 | Cognition Composite Score (Baseline was assigned the value of zero @ Week 0) ([1]; 2 mg daily dose, Week 23): 0.1276 | Cognition composite score Effect Size ([1]; 2 mg versus placebo, over a 23 week period): 0.42 | ADAS-Cog-13 (Baseline was assigned the value of zero @ Week 0) ([2]; 0.3 mg daily dose, Week 4): −0.615 | ADAS-Cog-13 (Baseline was assigned the value of zero @ Week 0) ([2]; 0.3 mg daily dose, Week 12): −0.5876 | ADAS-Cog-13 (Baseline was assigned the value of zero @ Week 0) ([2]; 0.3 mg daily dose, Week 18): −0.3132 | ADAS-Cog-13 (Baseline was assigned the value of zero @ Week 0) ([2]; 0.3 mg daily dose, Week 23): 0.0915 | ADAS-Cog-13 (Baseline was assigned the value of zero @ Week 0) ([2]; 1 mg daily dose, Week 4): −0.8012 | ADAS-Cog-13 (Baseline was assigned the value of zero @ Week 0) ([2]; 1 mg daily dose, Week 12): −1.2029 | ADAS-Cog-13 (Baseline was assigned the value of zero @ Week 0) ([2]; 1 mg daily dose, Week 18): −0.3222 | ADAS-Cog-13 (Baseline was assigned the value of zero @ Week 0) ([2]; 1 mg daily dose, Week 23): −0.0565 | ADAS-Cog-13 (Baseline was assigned the value of zero @ Week 0) ([2]; 2 mg daily dose, Week 4): −0.0185 | ADAS-Cog-13 (Baseline was assigned the value of zero @ Week 0) ([2]; 2 mg daily dose, Week 12): −1.4328 | ADAS-Cog-13 (Baseline was assigned the value of zero @ Week 0) ([2]; 2 mg daily dose, Week 18): −1.6593 | ADAS-Cog-13 (Baseline was assigned the value of zero @ Week 0) ([2]; 2 mg daily dose, Week 23): −1.6899 | ADAS-Cog 13 Effect Size ([2]; 2 mg dose versus Placebo): 0.39 | ADAS-Cog-13 (Baseline was assigned the value of zero @ Week 0) ([2]; Add-On patients (stable donepezil or rivastigmine), 0.3 mg daily dose, Week 4): −0.9985 | ADAS-Cog-13 (Baseline was assigned the value of zero @ Week 0) ([2]; Add-On patients (stable donepezil or rivastigmine), 0.3 mg daily dose, Week 12): −0.2474 | ADAS-Cog-13 (Baseline was assigned the value of zero @ Week 0) ([2]; Add-On patients (stable donepezil or rivastigmine), 0.3 mg daily dose, Week 18): −0.4557 | ADAS-Cog-13 (Baseline was assigned the value of zero @ Week 0) ([2]; Add-On patients (stable donepezil or rivastigmine), 0.3 mg daily dose, Week 23): 0.2752 | ADAS-Cog-13 (Baseline was assigned the value of zero @ Week 0) ([2]; Add-On patients (stable donepezil or rivastigmine), 1 mg daily dose, Week 4): −1.0728 | ADAS-Cog-13 (Baseline was assigned the value of zero @ Week 0) ([2]; Add-On patients (stable donepezil or rivastigmine), 1 mg daily dose, Week 12): −0.0705 | ADAS-Cog-13 (Baseline was assigned the value of zero @ Week 0) ([2]; Add-On patients (stable donepezil or rivastigmine), 1 mg daily dose, Week 18): 0.6239 | ADAS-Cog-13 (Baseline was assigned the value of zero @ Week 0) ([2]; Add-On patients (stable donepezil or rivastigmine), 1 mg daily dose, Week 23): 1.4205 | ADAS-Cog-13 (Baseline was assigned the value of zero @ Week 0) ([2]; Add-On patients (stable donepezil or rivastigmine), 2 mg daily dose, Week 4): −0.455 | ADAS-Cog-13 (Baseline was assigned the value of zero @ Week 0) ([2]; Add-On patients (stable donepezil or rivastigmine), 2 mg daily dose, Week 12): −0.9708 | ADAS-Cog-13 (Baseline was assigned the value of zero @ Week 0) ([2]; Add-On patients (stable donepezil or rivastigmine), 2 mg daily dose, Week 18): −1.8659 | ADAS-Cog-13 (Baseline was assigned the value of zero @ Week 0) ([2]; Add-On patients (stable donepezil or rivastigmine), 2 mg daily dose, Week 23): −1.1679 | ADAS-Cog-13 (Baseline was assigned the value of zero @ Week 0) ([2]; de novo patients, 0.3 mg daily dose, Week 4): −0.545 | ADAS-Cog-13 (Baseline was assigned the value of zero @ Week 0) ([2]; de novo patients, 0.3 mg daily dose, Week 12): −1.0759 | ADAS-Cog-13 (Baseline was assigned the value of zero @ Week 0) ([2]; de novo patients, 0.3 mg daily dose, Week 18): −0.4416 | ADAS-Cog-13 (Baseline was assigned the value of zero @ Week 0) ([2]; de novo patients, 0.3 mg daily dose, Week 23): −0.3226 | ADAS-Cog-13 (Baseline was assigned the value of zero @ Week 0) ([2]; de novo patients, 1 mg daily dose, Week 4): −0.5942 | ADAS-Cog-13 (Baseline was assigned the value of zero @ Week 0) ([2]; de novo patients, 1 mg daily dose, Week 12): −2.311 | ADAS-Cog-13 (Baseline was assigned the value of zero @ Week 0) ([2]; de novo patients, 1 mg daily dose, Week 18): −1.2239 | ADAS-Cog-13 (Baseline was assigned the value of zero @ Week 0) ([2]; de novo patients, 1 mg daily dose, Week 23): −1.4169 | ADAS-Cog-13 (Baseline was assigned the value of zero @ Week 0) ([2]; de novo patients, 2 mg daily dose, Week 4): 0.3542 | ADAS-Cog-13 (Baseline was assigned the value of zero @ Week 0) ([2]; de novo patients, 2 mg daily dose, Week 12): −1.9196 | ADAS-Cog-13 (Baseline was assigned the value of zero @ Week 0) ([2]; de novo patients, 2 mg daily dose, Week 18): −1.5539 | ADAS-Cog-13 (Baseline was assigned the value of zero @ Week 0) ([2]; de novo patients, 2 mg daily dose, Week 23): −2.2283 | Executive Function Composite Score (Baseline was assigned the value of zero @ Week 0) ([3]; 0.3 mg daily dose, Week 4): 0.0074 | Executive Function Composite Score (Baseline was assigned the value of zero @ Week 0) ([3]; 0.3 mg daily dose, Week 12): 0.0391 | Executive Function Composite Score (Baseline was assigned the value of zero @ Week 0) ([3]; 0.3 mg daily dose, Week 18): −0.0224 | Executive Function Composite Score (Baseline was assigned the value of zero @ Week 0) ([3]; 0.3 mg daily dose, Week 23): −0.0153 | Executive Function Composite Score (Baseline was assigned the value of zero @ Week 0) ([3]; 1 mg daily dose, Week 4): 0.0202 | Executive Function Composite Score (Baseline was assigned the value of zero @ Week 0) ([3]; 1 mg daily dose, Week 12): 0.0609 | Executive Function Composite Score (Baseline was assigned the value of zero @ Week 0) ([3]; 1 mg daily dose, Week 18): 0.0418 | Executive Function Composite Score (Baseline was assigned the value of zero @ Week 0) ([3]; 1 mg daily dose, Week 23): 0.0476 | Executive function composite score Effect Size ([3]; 1 mg versus placebo): 0.32 | Executive Function Composite Score (Baseline was assigned the value of zero @ Week 0) ([3]; 2 mg daily dose, Week 4): −0.0311 | Executive Function Composite Score (Baseline was assigned the value of zero @ Week 0) ([3]; 2 mg daily dose, Week 12): −0.0452 | Executive Function Composite Score (Baseline was assigned the value of zero @ Week 0) ([3]; 2 mg daily dose, Week 18): 0.0188 | Executive Function Composite Score (Baseline was assigned the value of zero @ Week 0) ([3]; 2 mg daily dose, Week 23): 0.0244 | Executive function composite score Effect Size ([3]; 2 mg versus placebo): 0.27
